How the values were obtained:
[1] = target: T1, human Nav1.1 (Homo sapiens, UniProt P35498); assay: Amplification of Nav1.1-derived voltage-dependent sodium current (Nav1.1 current), cell line stably expressing human Nav1.1, automated patch clamp; format: cell-based
T1 construct: host or cells: HEK293
Method in brief: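 Automated whole-cell voltage-clamp recordings used HEK293 cells stably expressing human Nav1.1, keeping only cells with >500 pA current, with currents evoked by ramp voltage. Compounds were applied in extracellular fluid with 1% DMSO, and amplification (%) was computed from peak current or AUC after versus before addition.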

[2] = target: T2, human Nav1.5 (Homo sapiens, UniProt Q14524); assay: Amplification of Nav1.5-derived voltage-dependent sodium current (Nav1.5 current), cell line stably expressing human Nav1.5, automated patch clamp; format: cell-based
T2 construct: expressed in transfected cells; host or cells: CHO-K1 (T-REx System, ThermoFisher Scientific)
T2 sequence (Q14524 1-2015 isoform Q14524-2): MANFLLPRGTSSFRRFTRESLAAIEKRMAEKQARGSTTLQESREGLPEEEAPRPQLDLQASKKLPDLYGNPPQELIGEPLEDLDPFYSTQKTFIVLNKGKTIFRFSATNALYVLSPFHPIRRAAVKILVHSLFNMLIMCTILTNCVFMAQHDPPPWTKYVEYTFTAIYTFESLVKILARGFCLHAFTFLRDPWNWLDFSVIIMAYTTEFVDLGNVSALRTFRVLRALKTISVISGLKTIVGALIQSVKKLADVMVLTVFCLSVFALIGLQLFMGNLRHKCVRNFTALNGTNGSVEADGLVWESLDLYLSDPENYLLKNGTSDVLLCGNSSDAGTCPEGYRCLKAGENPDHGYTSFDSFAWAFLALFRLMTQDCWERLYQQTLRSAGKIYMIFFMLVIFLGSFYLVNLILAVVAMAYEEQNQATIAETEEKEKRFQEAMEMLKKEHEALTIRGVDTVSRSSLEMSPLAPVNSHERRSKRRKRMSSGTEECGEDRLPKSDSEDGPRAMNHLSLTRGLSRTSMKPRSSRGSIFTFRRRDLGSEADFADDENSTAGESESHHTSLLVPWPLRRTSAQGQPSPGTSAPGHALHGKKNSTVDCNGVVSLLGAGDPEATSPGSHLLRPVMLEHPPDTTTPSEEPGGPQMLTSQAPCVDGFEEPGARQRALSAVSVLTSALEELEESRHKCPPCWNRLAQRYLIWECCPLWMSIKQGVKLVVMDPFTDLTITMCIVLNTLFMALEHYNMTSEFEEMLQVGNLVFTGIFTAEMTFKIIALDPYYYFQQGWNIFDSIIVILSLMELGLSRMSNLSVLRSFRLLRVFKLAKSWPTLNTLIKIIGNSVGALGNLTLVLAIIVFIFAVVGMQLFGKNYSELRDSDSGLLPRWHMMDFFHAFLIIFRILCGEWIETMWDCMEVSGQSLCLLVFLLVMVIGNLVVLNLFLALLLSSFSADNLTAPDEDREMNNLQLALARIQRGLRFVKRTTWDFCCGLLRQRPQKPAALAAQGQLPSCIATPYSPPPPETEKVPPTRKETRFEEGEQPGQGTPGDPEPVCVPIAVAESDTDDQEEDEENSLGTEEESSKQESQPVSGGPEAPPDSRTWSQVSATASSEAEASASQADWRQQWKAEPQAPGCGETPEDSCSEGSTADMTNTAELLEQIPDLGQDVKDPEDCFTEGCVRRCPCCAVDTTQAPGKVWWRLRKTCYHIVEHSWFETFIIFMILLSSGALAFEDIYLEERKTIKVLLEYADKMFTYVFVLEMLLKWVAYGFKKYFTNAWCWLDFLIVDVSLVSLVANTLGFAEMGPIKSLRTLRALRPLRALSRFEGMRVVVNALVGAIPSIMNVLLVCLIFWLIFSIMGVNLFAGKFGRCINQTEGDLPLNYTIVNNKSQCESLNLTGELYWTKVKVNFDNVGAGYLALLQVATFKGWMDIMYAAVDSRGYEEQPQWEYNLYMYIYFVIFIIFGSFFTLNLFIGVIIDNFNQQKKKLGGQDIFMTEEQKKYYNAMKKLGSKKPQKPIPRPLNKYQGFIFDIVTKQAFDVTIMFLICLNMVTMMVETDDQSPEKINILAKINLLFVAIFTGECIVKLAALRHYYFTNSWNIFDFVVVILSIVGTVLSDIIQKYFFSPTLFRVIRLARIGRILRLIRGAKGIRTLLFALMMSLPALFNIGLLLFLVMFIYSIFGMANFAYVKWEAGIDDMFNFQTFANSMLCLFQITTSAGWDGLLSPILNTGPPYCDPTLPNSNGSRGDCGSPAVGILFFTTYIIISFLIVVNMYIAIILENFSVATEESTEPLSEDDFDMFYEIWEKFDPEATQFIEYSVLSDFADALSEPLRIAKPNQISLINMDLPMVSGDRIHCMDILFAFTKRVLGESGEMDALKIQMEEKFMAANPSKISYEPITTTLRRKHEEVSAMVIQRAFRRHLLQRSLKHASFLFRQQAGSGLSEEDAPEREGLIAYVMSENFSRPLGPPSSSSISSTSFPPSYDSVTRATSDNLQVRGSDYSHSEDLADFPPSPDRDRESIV
Procedure: Test 2: Evaluation of the Amplification in Nav1.5-Derived Voltage-Dependent Sodium Current (Nav1.5 Current) by Using a Cell Line Stably Expressing Human Nav1.5
A CHO-K1 cell line (Chinese hamster ovary) stably expressing human Nav1.5 (Gene Bank Accession No: P000326.2) was obtained by using purchased T-Rex System (ThermoFisher Scientific, USA), and used for the present test. The effect of test compounds on the amplification of Nav1.5 current was evaluated by using a cell line stably expressing human Nav1.5 and HTS automated patch clamp system, similarly in the method using Nav1.1. In other words, test compounds were added in an extracellular fluid which contained 1% DMSO and 500 nmol/L Tetrodotoxin (TTX), and evaluated as a change of the peak value of Nav1.5 current and the area under the curve (AUC). The induction and the measurement of Nav1.5 current, the pharmacologic effect on Nav1.5 current, and a method for pharmacological evaluation were carried out by the same method as in Nav1.1.

[3] = compound 3 μmol/L, HEK293 stably expressing human Nav1.1
[4] = compound 3 μmol/L, CHO-K1 stably expressing human Nav1.5
[5] = compound 1 μmol/L, HEK293 stably expressing human Nav1.1
[6] = compound 1 μmol/L, CHO-K1 stably expressing human Nav1.5
[7] = 10 μmol/L compound, change of the area under the curve of Nav1.1 current (Test Result 1)
[8] = 10 μmol/L compound, change of the area under the curve of Nav1.5 current (Test Result 1)

SMILES	Nav1.1 current amplification rate (%) [1, 3] [%]	Nav1.1 current amplification rate (%) [1, 5] [%]	Nav1.5 current amplification rate (%) [2, 4] [%]	Nav1.5 current amplification rate (%) [2, 6] [%]	also measured
CC1CC=C(c2ccc(=O)n(CC(=O)N3CCc4cc(C5CN(C6COC6)C5)ccc43)n2)CC1 (racemic) [Example 318]	77	–	128	–	–
CC1CC=C(c2ccc(=O)n(CC(=O)N3CCc4c3ccnc4N3CCOCC3)n2)CC1 (racemic) [Example 319]	–	134	–	30	–
CC1CC=C(c2ccc(=O)n(CC(=O)N3CCc4c(C5CN(C(=O)CO)C5)cccc43)n2)CC1 (racemic) [Example 321]	478	–	330	–	–
CC1CC=C(c2ccc(=O)n(CC(=O)Nc3cccc(N4CCOCC4)c3F)n2)CC1 (racemic) [Example 322]	115	–	18	–	–
CC1CC=C(c2ccc(=O)n(CC(=O)Nc3ccc4oc(CN(C)C)nc4c3)n2)CC1 (racemic) [Example 324]	50	–	5	–	–
CC1CC=C(c2ccc(=O)n(CC(=O)Nc3ccc4oc(C(C)(C)O)nc4c3)n2)CC1 (racemic) [Example 327]	124	–	9	–	–
CC1CC=C(c2ccc(=O)n(CC(=O)Nc3ccc4oc(CN5CCOCC5)nc4c3)n2)CC1 (racemic) [Example 331]	64	–	9	–	–
COC1CN(Cc2nc3cc(NC(=O)Cn4nc(C5=CCC(C)CC5)ccc4=O)ccc3o2)C1 (racemic) [Example 332]	15	–	9	–	–
CC1CC=C(c2ccc(=O)n(CC(=O)Nc3ccc4oc(CN5CCC5)nc4c3)n2)CC1 (racemic) [Example 333]	25	–	13	–	–
CC1CC=C(c2ccc(=O)n(CC(=O)Nc3ccnc(N4CCOCC4)c3F)n2)CC1 (racemic) [Example 383]	–	84	–	51	–
CC1CC=C(c2ccc(=O)n(CC(=O)N3CCN(c4ccccn4)CC3)n2)CC1 (racemic) [Example 394]	–	–	–	–	Nav1.1 current amplification rate (%) [1, 7]: 98%; Nav1.5 current amplification rate (%) [2, 8]: 1%
CC1CC=C(c2ccc(=O)n(CC(=O)N3CCN(c4cccnc4)CC3)n2)CC1 (racemic) [Example 395]	–	–	–	–	Nav1.1 current amplification rate (%) [1, 7]: 343%; Nav1.5 current amplification rate (%) [2, 8]: 15%
Cc1ccc(N2CCN(C(=O)Cn3nc(C4=CCC(C)CC4)ccc3=O)CC2)cn1 (racemic) [Example 396]	–	–	–	–	Nav1.1 current amplification rate (%) [1, 7]: 136%; Nav1.5 current amplification rate (%) [2, 8]: 8%
CC1CC=C(c2ccc(=O)n(CC(=O)N3CC=C(c4cncc(F)c4)CC3)n2)CC1 (racemic) [Example 397]	–	–	–	–	Nav1.1 current amplification rate (%) [1, 7]: 273%; Nav1.5 current amplification rate (%) [2, 8]: 49%
CC1CC=C(c2ccc(=O)n(CC(=O)N3CC=C(c4cncnc4)CC3)n2)CC1 (racemic) [Example 398]	–	–	–	–	Nav1.1 current amplification rate (%) [1, 7]: 175%; Nav1.5 current amplification rate (%) [2, 8]: 29%
COc1cnc(C2=CCN(C(=O)Cn3nc(C4=CCC(C)CC4)ccc3=O)CC2)cn1 (racemic) [Example 399]	–	–	–	–	Nav1.1 current amplification rate (%) [1, 7]: 102%; Nav1.5 current amplification rate (%) [2, 8]: 11%
COc1ncc(C2=CCN(C(=O)Cn3nc(C4=CCC(C)CC4)ccc3=O)CC2)cn1 (racemic) [Example 400]	–	–	–	–	Nav1.1 current amplification rate (%) [1, 7]: 238%; Nav1.5 current amplification rate (%) [2, 8]: 24%
CC1CC=C(c2ccc(=O)n(CC(=O)N3CCN(c4cncc(C(F)(F)F)c4)CC3)n2)CC1 (racemic) [Example 401]	–	–	–	–	Nav1.1 current amplification rate (%) [1, 7]: 286%; Nav1.5 current amplification rate (%) [2, 8]: 5%
COc1cc(C2=CCC(C)CC2)nn(CC(=O)N2CCc3c(N4CCOCC4)cccc32)c1=O (racemic) [Example 473]	–	–	–	–	Nav1.1 current amplification rate (%) [1, 7]: 487%; Nav1.5 current amplification rate (%) [2, 8]: 128%

More lines, main results first:

Nav1.1 current amplification rate (%) [1, 3] [%]	Nav1.1 current amplification rate (%) [1, 5] [%]	SMILES	Nav1.5 current amplification rate (%) [2, 4] [%]	Nav1.5 current amplification rate (%) [2, 6] [%]	also measured
154	–	Cc1cc(NC(=O)Cn2nc(C3=CCC(C)CC3)ccc2=O)cc2ncoc12 (racemic) [Example 323]	11	–	–
233	–	COCc1nc2cc(NC(=O)Cn3nc(C4=CCC(C)CC4)ccc3=O)ccc2o1 (racemic) [Example 325]	10	–	–
132	–	Cc1nc2cc(NC(=O)Cn3nc(C4=CCC(C)CC4)ccc3=O)cnc2s1 (racemic) [Example 326]	34	–	–
58	–	CC1CC=C(c2ccc(=O)n(CC(=O)Nc3cc4nccn4cn3)n2)CC1 (racemic) [Example 328]	21	–	–
100	–	Cc1nc2cc(NC(=O)Cn3nc(C4=CCC(C)CC4)ccc3=O)ccn2c1C (racemic) [Example 329]	50	–	–
–	191	CC1CC=C(c2ccc(=O)n(CC(=O)Nc3ccn4ncnc4c3)n2)CC1 (racemic) [Example 330]	–	47	–
255	–	CC1CC=C(c2ccc(=O)n(CC(=O)Nc3ccn4cc(C5CC5)nc4c3)n2)CC1 (racemic) [Example 334]	25	–	–
187	–	CC1CC=C(c2ccc(=O)n(CC(=O)Nc3ccn4c(C5CC5)cnc4c3)n2)CC1 (racemic) [Example 335]	65	–	–
–	241	CC1CC=C(c2ccc(=O)n(CC(=O)Nc3ccn4cncc4c3)n2)CC1 (racemic) [Example 338]	–	49	–
–	127	CC1CC=C(c2ccc(=O)n(CC(=O)Nc3ccc4ncnn4c3)n2)CC1 (racemic) [Example 339]	–	15	–
–	109	CC1CC=C(c2ccc(=O)n(CC(=O)Nc3ccn4nncc4c3)n2)CC1 (racemic) [Example 342]	–	52	–
–	232	CC1CC=C(c2ccc(=O)n(CC(=O)Nc3ccc4cnnn4c3)n2)CC1 (racemic) [Example 345]	–	46	–
–	96	CC1CC=C(c2ccc(=O)n(CC(=O)Nc3ccc4nccn4n3)n2)CC1 (racemic) [Example 346]	–	27	–
–	101	Cc1cc(NC(=O)Cn2nc(C3=CCC(C)CC3)ccc2=O)cn2ncnc12 (racemic) [Example 349]	–	24	–
–	155	Cc1cc(NC(=O)Cn2nc(C3=CCC(C)CC3)ccc2=O)cc2ncnn12 (racemic) [Example 352]	–	34	–
–	123	CC1CC=C(c2ccc(=O)n(CC(=O)Nc3ccc4nccnc4c3)n2)CC1 (racemic) [Example 354]	–	27	–
–	130	CC1CC=C(c2ccc(=O)n(CC(=O)Nc3ccc4ncncc4c3)n2)CC1 (racemic) [Example 355]	–	28	–
–	378	CC1CC=C(c2ccc(=O)n(CC(=O)Nc3ccc4cncnc4c3)n2)CC1 (racemic) [Example 356]	–	34	–
–	200	CC1CC=C(c2ccc(=O)n(CC(=O)Nc3ccc(C#N)nc3)n2)CC1 (racemic) [Example 360]	–	100	–
–	101	Cc1nccn1-c1ccc(NC(=O)Cn2nc(C3=CCC(C)CC3)ccc2=O)cc1 (racemic) [Example 361]	–	112	–
–	133	CC1CC=C(c2ccc(=O)n(CC(=O)Nc3ccnc(C#N)c3)n2)CC1 (racemic) [Example 362]	–	24	–
